Reference: paper PMC5750218, “Protein-inspired antibiotics active against vancomycin- and daptomycin-resistant bacteria” (Nature Communications, 2018)
≈ marks a conversion by molar mass, not a printed value. Read-outs that look alike come from different tables or passages of the source.

Tests used:
[1] = tested on: Methicillin-resistant S. aureus ATCC 43300; experiment: microbe, parasite or virus in culture; conditions: for MIC MRSA: ATCC 43300, 24 h
Outline: (§1)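 MICs were determined by broth microdilution in Mueller Hinton broth. Bacteria were pregrown overnight, diluted 40-fold and regrown 2–3 h at 37 °C.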

[2] = tested on: Vancomycin-resistant S. aureus NARSA VRS4; experiment: microbe, parasite or virus in culture; assay type: cell-based, Staphylococcus aureus; conditions: for MIC VRSA: Vancomycin-resistant NARSA VRS4
[3] = tested on: Vancomycin-resistant (VanA) Enterococcus faecium ATCC 51559; experiment: microbe, parasite or virus in culture; conditions: for MIC VRE: ATCC 51559
Outline: as §1

[4] = tested on: Multi-drug-resistant S. pneumoniae ATCC 700677; experiment: microbe, parasite or virus in culture; conditions: for MIC MDR S.P.: ATCC 700677
Outline: as §1

[5] = tested on: Vancomycin-intermediate S. aureus NRS1; experiment: microbe, parasite or virus in culture; conditions: for MIC VISA: Vancomycin-intermediate NRS1
Outline: as §1

[6] = tested on: S. aureus ATCC 43300 MRSA; experiment: microbe, parasite or virus in culture; assay type: cell-based, Staphylococcus aureus; conditions: Staphylococcus aureus, 24 h
Procedure: (§2) The compounds, along with standard antibiotics were serially diluted twofold across the wells of 96-well non-binding surface (NBS) polystyrene plates (Corning 3641). […] Standards ranged from 64 to 0.03 µg mL^−1 and compounds from 8 to 0.003 µg mL^−1 with final assay volumes of 100 µL per well. Gram-positive bacteria were cultured in Mueller Hinton broth (MHB) (Bactolaboratories, Cat. no. 211443) at 37 °C overnight. A sample of each culture was then diluted 40-fold in fresh MHB and incubated at 37 °C for 2–3 h. The resultant mid-log phase cultures were added to the compound-containing 96-well plates to give a final cell density of 5 × 10^5 colony forming unit (CFU) mL^−1. All the plates were covered and incubated at 37 °C for 24 h. MICs were the lowest concentration showing no visible growth.

[7] = Cytotoxicity MTT assay; assay type: cell-based, human; conditions: human
Procedure: (§3) Compound cytotoxicity was evaluated against HepG2 (ATCC-®HB-8065 liver hepatoceullular carcinoma) and HEK293 (ATCC®CRL-1573, embryonic kidney) human cell lines using standard (3-(4,5-dimethylthiazol-2-yl)−2,5-diphenyltetrazolium bromide (MTT) assay protocol with slight changes. In brief, HepG2 and HEK293 cells (assessed annually for mycoplasma contamination) were seeded as 1.5 × 10^4 cells per well in a clear 96-well tissue culture treated plate in a final volume of 100 μL in Dulbecco’s Modified Eagle Medium (DMEM)(GIBCO-Invitrogen #11995-073), in which 1% of FBS was added. Cells were incubated for 24 h at 37 °C, 5% CO2 to allow cells to attach to the plates. Compounds prepared at 100 µM to 0.046 µM in threefold dilutions were added into each well and incubated for 24 h at 37 °C, 5% CO2. After the incubation, 0.4 mg mL^−1 MTT (3-(4,5-dimethylthiazol-2-yl)−2,5-diphenyltetrazolium bromide) (Invitrogen) was added to each well. The plates were then incubated for 2 h at 37 °C, 5% CO2. The media was removed, and purple formazan crystals were resuspended in 60 μL of DMSO. The absorbance was read at 570 nm using a Polarstar Omega plate reader. The data was then analysed by Prism software. Results are presented as the average percentage of control ± S.D. for each set of duplicate wells using the following equation: percent viability = (ABSTEST – ABSPOSITIVE CTRL / ABSUNTREATED –ABS POSITIVE CTRL)×100.

[8] = Cytotoxicity MTT assay; assay type: cell-based, human; conditions: human; remark: listed apart in the source
Procedure: as §3, with “Compounds prepared at 100 µM to 0.046 µM in threefold dilutions were added into each well and incubated for 24 h at 37 °C, 5% CO2.” left out

[9] = tested on: S. pneumoniae ATCC 700677 MDR; experiment: microbe, parasite or virus in culture; assay type: cell-based, Streptococcus pneumoniae; conditions: Streptococcus pneumoniae, ATCC700677, 24 h
Procedure: as §2

[10] = tested on: S. pneumoniae ATCC 33400; experiment: microbe, parasite or virus in culture; assay type: cell-based, Streptococcus pneumoniae; conditions: Streptococcus pneumoniae, ATCC33400, 24 h
Procedure: as §2

[11] = Haemolysis assay; assay type: cell-based; conditions: human, whole blood
Procedure: Haemolytic activity was measured as previously described with slight modifications, [45]. Fresh human venal blood was collected from healthy volunteers and pretreated with the anticoagulant sodium citrate. Serial twofold dilutions of each antibiotic, dissolved in 0.9% NaCl solution, were added to fresh human whole blood (50% final, vol:vol) to the final volume of 80 μL and incubated at 37 °C for 3 h on a horizontal shaker at 200 rpm. For negative and positive controls, human whole blood in 0.9% NaCl solution (A blank) and in sdH2O (A water) were used, respectively. After incubation, both test and A blank were mixed with 1 mL 0.9% NaCl solution, or sdH2O for the complete […] A water. After centrifugation of samples at 2500 rpm (700 × g) for 5 min, the release of haemoglobin was monitored by measuring the absorbance (A sample) of the supernatant at 540 nm using BMG Labtech PolarStar Omega multimode reader. The percentage of haemolysis was calculated according to the equation: %haemolysis=Asample-Ablank∕Awater-Ablank×100

[12] = 37 °C, 20 µM
[13] = in vitro; conditions: human, 50% human plasma (pooled, sodium heparin) in PBS, pH 7.4

CCCCCCCCCCNCCN[C@@]1(C)C[C@H](O[C@H]2[C@H](Oc3c4cc5cc3Oc3ccc(cc3Cl)[C@@H](O)[C@@H](NC(=O)[C@@H](CC(C)C)NC)C(=O)N[C@@H](CC(N)=O)C(=O)N[C@H]5C(=O)N[C@H]3C(=O)N[C@H](C(=O)N[C@H](C(=O)O)c5cc(O)c(CNCP(=O)(O)O)c(O)c5-c5cc3ccc5O)[C@H](O)c3ccc(c(Cl)c3)O4)O[C@H](CO)[C@@H](O)[C@@H]2O)O[C@@H](C)[C@H]1O [Compound 2, Telavancin]
MIC ([1]; Staphylococcus aureus, ATCC43300|MRSA, 24 h, read-out: MIC MRSA, S. aureus ATCC 43300, NBS plates, MHB, 24 h, substance alone): 0.03 µg/mL (≈ 0.0171 µM) | MIC ([2]; Staphylococcus aureus, VRSA, read-out: MIC VRSA): 1 µg/mL (≈ 0.57 µM) | MIC ([3]; Enterococcus faecium, ATCC51559 / VRE, read-out: MIC VRE): 2 µg/mL (≈ 1.14 µM) | MIC ([4]; Streptococcus pneumoniae, ATCC700677, read-out: MIC MDR S.P.): 0.06 µg/mL (≈ 0.0342 µM) | MIC ([5]; Staphylococcus aureus, NRS1 / VISA, read-out: MIC VISA): 0.25 µg/mL (≈ 0.142 µM) | MIC ([6]; read-out: MIC S. aureus ATCC 43300 MRSA, 1% Survanta): 0.126 µg/mL (≈ 0.0715 µM) | MIC ([6]; read-out: MIC S. aureus ATCC 43300 MRSA, 5% Survanta): 0.25 to 0.5 µg/mL (≈ 0.142 to 0.285 µM) | MIC ([6]; read-out: MIC S. aureus ATCC 43300 MRSA, no added Survanta): 0.125 µg/mL (≈ 0.0712 µM) | CC50 at 24 h ([7]; 24 h, MTT, 1% FBS, read-out: Cytotoxicity CC50 HEK293): > 100 µM | CC50 at 24 h ([8]; 24 h, MTT, 1% FBS, read-out: Cytotoxicity CC50 HepG2): > 100 µM | MIC ([9]; read-out: MIC S. pneumoniae ATCC 700677 MDR, 1% Survanta): 0.06 to 0.125 µg/mL (≈ 0.0342 to 0.0712 µM) | MIC ([9]; read-out: MIC S. pneumoniae ATCC 700677 MDR, 5% Survanta): 0.25 µg/mL (≈ 0.142 µM) | MIC ([9]; read-out: MIC S. pneumoniae ATCC 700677 MDR, no added Survanta): 0.06 to 0.125 µg/mL (≈ 0.0342 to 0.0712 µM) | MIC ([10]; read-out: MIC S. pneumoniae ATCC 33400, 1% Survanta): 0.25 µg/mL (≈ 0.142 µM) | MIC ([10]; read-out: MIC S. pneumoniae ATCC 33400, 5% Survanta): 0.5 µg/mL (≈ 0.285 µM) | MIC ([10]; read-out: MIC S. pneumoniae ATCC 33400, no added Survanta): 0.125 to 0.25 µg/mL (≈ 0.0712 to 0.142 µM)

CCCCCCCCCCC(=O)N[C@@H](CCCCN)C(=O)N[C@@H](CCCCN)C(=O)N[C@@H](CCCCNC(=O)[C@H]1NC(=O)[C@H]2NC(=O)[C@H](NC(=O)[C@@H]3NC(=O)[C@H](CC(N)=O)NC(=O)[C@H](NC(=O)[C@@H](CC(C)C)NC)[C@H](O)c4ccc(c(Cl)c4)Oc4cc3cc(c4O[C@@H]3O[C@H](CO)[C@@H](O)[C@H](O)[C@H]3O[C@H]3C[C@](C)(N)[C@H](O)[C@H](C)O3)Oc3ccc(cc3Cl)[C@H]2O)c2ccc(O)c(c2)-c2c(O)cc(O)cc21)C(=O)NC [Compound 22, nC10CO-KK-K(Vancomycin)-NHMe]
hemolysis at 3 h ([11]; 100 µg mL-1): 1.9% | hemolysis at 3 h ([11]; 1600 µg mL-1): 2.7% | MIC MRSA [1]: 0.015 µg/mL (≈ 0.00744 µM) | MIC VRSA [2]: 0.5 µg/mL (≈ 0.248 µM) | MIC VRE [3]: 4 µg/mL (≈ 1.98 µM) | MIC MDR S.P. [4]: 0.015 µg/mL (≈ 0.00744 µM) | MIC VISA [5]: 0.125 µg/mL (≈ 0.062 µM) | CC50 at 24 h [7]: 47 µM | CC50 at 24 h [8]: 80 µM

CN[C@H](CC(C)C)C(=O)N[C@H]1C(=O)N[C@@H](CC(N)=O)C(=O)N[C@H]2C(=O)N[C@H]3C(=O)N[C@H](C(=O)N[C@H](C(=O)NCCCC[C@H](NC(=O)[C@H](CCCCN)NC(=O)[C@H](CCCCN)NC(C)=O)C(=O)O)c4cc(O)cc(O)c4-c4cc3ccc4O)[C@H](O)c3ccc(c(Cl)c3)Oc3cc2cc(c3O[C@@H]2O[C@H](CO)[C@@H](O)[C@H](O)[C@H]2O[C@H]2C[C@](C)(N)[C@H](O)[C@H](C)O2)Oc2ccc(cc2Cl)[C@H]1O [Compound 25, Ac-KK-K(Vancomycin)-OH]
MIC VRSA [2]: >8 µg/mL | CC50 at 24 h [7]: > 500 µM | CC50 at 24 h [8]: > 500 µM

CCCCCCCCCCCCCC(=O)N[C@@H](CCCCN)C(=O)N[C@@H](CCCCN)C(=O)N[C@@H](CCCCN)C(=O)N[C@@H](CSSCCNC(=O)[C@H]1NC(=O)[C@H]2NC(=O)[C@H](NC(=O)[C@@H]3NC(=O)[C@H](CC(N)=O)NC(=O)[C@H](NC(=O)[C@@H](CC(C)C)NC)[C@H](O)c4ccc(c(Cl)c4)Oc4cc3cc(c4O[C@@H]3O[C@H](CO)[C@@H](O)[C@H](O)[C@H]3O[C@H]3C[C@](C)(N)[C@H](O)[C@H](C)O3)Oc3ccc(cc3Cl)[C@H]2O)c2ccc(O)c(c2)-c2c(O)cc(O)cc21)C(=O)O [Compound 15, nC13CO-KKKC(SCH 2 CH 2 NH-Vancomycin)-OH]
MIC MRSA [1]: <0.003 µg/mL | % compound remaining after incubation in 50% human plasma, 0h [12]: 100% | MIC VRE [3]: 0.02 µg/mL (≈ 0.009 µM) | MIC MDR S.P. [4]: <0.003 µg/mL | MIC VISA [5]: 0.02 µg/mL (≈ 0.009 µM) | remaining at 1 h, 20 µM [13]: 77% | remaining at 3 h, 20 µM [13]: 64% | remaining at 6 h, 20 µM [13]: 51% | remaining at 24 h, 20 µM [13]: 3% | CC50 at 24 h [7]: 18 µM | CC50 at 24 h [8]: 11 µM
